The source of these data is ChEMBL document CHEMBL3632492, “Substituted 2-arylquinazolinones: Design, synthesis, and evaluation of cytotoxicity and inhibition of topoisomerases” (Eur J Med Chem, 2015).

In test [1] the target is T1, DNA topoisomerase 1 (Homo sapiens) (UniProt P11387).
T1 sequence (whole entry): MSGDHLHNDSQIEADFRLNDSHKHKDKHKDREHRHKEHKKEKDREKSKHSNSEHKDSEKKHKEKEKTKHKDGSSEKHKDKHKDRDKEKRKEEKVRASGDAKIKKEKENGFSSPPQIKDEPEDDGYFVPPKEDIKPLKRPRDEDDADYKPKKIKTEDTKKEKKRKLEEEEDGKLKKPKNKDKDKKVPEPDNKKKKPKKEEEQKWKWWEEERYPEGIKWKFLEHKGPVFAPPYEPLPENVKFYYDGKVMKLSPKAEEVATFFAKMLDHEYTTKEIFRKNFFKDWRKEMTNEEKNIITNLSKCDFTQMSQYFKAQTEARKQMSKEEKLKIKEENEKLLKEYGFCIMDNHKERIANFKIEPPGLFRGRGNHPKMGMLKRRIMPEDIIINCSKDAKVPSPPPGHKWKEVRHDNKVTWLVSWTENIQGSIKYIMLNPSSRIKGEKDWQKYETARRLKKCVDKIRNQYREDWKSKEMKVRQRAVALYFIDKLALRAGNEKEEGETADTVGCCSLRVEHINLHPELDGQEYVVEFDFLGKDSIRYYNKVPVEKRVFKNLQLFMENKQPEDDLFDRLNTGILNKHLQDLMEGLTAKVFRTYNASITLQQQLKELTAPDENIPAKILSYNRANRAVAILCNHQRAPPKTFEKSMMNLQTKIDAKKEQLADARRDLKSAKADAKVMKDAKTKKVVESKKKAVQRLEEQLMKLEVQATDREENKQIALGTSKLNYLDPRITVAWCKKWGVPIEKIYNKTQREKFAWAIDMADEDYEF
In words: Potency index, ratio of compound activity to CPT activity for inhibition of recombinant human topoisomerase 1 at 100 uM.

The target of test [2] is T1, DNA topoisomerase 1 (Homo sapiens). In words: Inhibition of recombinant human topoisomerase 1 assessed as relaxation of supercoiled plasmid DNA pBR322 at 100 uM incubated for 30 mins by agarose gel electrophoresis.
Test [3] shares this target. In words: Inhibition of recombinant human topoisomerase 1 assessed as relaxation of supercoiled plasmid DNA pBR322 at 20 uM incubated for 30 mins by agarose gel electrophoresis.
The target of test [4] is DNA topoisomerase 2-alpha (Homo sapiens) (UniProt P11388). The experiment in a line: Inhibition of recombinant human topoisomerase 2alpha assessed as relaxation of supercoiled plasmid DNA pBR322 at 100 uM incubated for 30 mins by agarose gel electrophoresis.
The target is the same in test [5]. In words: Inhibition of recombinant human topoisomerase 2alpha assessed as relaxation of supercoiled plasmid DNA pBR322 at 20 uM incubated for 30 mins by agarose gel electrophoresis.
Test [6] addresses T1, DNA topoisomerase 1 (Homo sapiens). The experiment in a line: Potency index, ratio of compound activity to CPT activity for inhibition of recombinant human topoisomerase 1 at 20 uM.
The target of test [7] is DNA topoisomerase 2-alpha (Homo sapiens) (UniProt P11388). In words: Potency index, ratio of compound activity to etoposide activity for inhibition of recombinant human topoisomerase 2alpha at 100 uM.
Test [8] shares this target. In words: Potency index, ratio of compound activity to etoposide activity for inhibition of recombinant human topoisomerase 2alpha at 20 uM.
For test [9], the system named is HCT-15. The experiment in a line: Cytotoxicity against human HCT15 cells measured after 2 days by MTT assay. Particulars: HCT-15, 48 h. It counts as functional, cell-based. In general terms: Formazan colour is commonly taken as a measure of viable cells.
For test [10], the system named is T47D. The experiment in a line: Cytotoxicity against human T47D cells measured after 2 days by MTT assay. It is filed as functional, cell-based. To be noted: 48 h.
Test [11] has as its system HeLa. In words: Cytotoxicity against human HeLa cells measured after 2 days by MTT assay. It is filed as functional, cell-based. Particulars: 48 h.
The target in test [12] is DNA topoisomerase 2-alpha (Homo sapiens) (UniProt P11388). The experiment in a line: Inhibition of recombinant human topoisomerase 2alpha mediated decatenation using kDNA as substrate at 100 uM incubated for 30 mins by agarose gel electrophoresis.
Test [13] has the same target. In words: Inhibition of recombinant human topoisomerase 2alpha mediated decatenation using kDNA as substrate at 50 uM incubated for 30 mins by agarose gel electrophoresis.

Sequence of DNA topoisomerase 2-alpha (Homo sapiens) (P11388 whole entry): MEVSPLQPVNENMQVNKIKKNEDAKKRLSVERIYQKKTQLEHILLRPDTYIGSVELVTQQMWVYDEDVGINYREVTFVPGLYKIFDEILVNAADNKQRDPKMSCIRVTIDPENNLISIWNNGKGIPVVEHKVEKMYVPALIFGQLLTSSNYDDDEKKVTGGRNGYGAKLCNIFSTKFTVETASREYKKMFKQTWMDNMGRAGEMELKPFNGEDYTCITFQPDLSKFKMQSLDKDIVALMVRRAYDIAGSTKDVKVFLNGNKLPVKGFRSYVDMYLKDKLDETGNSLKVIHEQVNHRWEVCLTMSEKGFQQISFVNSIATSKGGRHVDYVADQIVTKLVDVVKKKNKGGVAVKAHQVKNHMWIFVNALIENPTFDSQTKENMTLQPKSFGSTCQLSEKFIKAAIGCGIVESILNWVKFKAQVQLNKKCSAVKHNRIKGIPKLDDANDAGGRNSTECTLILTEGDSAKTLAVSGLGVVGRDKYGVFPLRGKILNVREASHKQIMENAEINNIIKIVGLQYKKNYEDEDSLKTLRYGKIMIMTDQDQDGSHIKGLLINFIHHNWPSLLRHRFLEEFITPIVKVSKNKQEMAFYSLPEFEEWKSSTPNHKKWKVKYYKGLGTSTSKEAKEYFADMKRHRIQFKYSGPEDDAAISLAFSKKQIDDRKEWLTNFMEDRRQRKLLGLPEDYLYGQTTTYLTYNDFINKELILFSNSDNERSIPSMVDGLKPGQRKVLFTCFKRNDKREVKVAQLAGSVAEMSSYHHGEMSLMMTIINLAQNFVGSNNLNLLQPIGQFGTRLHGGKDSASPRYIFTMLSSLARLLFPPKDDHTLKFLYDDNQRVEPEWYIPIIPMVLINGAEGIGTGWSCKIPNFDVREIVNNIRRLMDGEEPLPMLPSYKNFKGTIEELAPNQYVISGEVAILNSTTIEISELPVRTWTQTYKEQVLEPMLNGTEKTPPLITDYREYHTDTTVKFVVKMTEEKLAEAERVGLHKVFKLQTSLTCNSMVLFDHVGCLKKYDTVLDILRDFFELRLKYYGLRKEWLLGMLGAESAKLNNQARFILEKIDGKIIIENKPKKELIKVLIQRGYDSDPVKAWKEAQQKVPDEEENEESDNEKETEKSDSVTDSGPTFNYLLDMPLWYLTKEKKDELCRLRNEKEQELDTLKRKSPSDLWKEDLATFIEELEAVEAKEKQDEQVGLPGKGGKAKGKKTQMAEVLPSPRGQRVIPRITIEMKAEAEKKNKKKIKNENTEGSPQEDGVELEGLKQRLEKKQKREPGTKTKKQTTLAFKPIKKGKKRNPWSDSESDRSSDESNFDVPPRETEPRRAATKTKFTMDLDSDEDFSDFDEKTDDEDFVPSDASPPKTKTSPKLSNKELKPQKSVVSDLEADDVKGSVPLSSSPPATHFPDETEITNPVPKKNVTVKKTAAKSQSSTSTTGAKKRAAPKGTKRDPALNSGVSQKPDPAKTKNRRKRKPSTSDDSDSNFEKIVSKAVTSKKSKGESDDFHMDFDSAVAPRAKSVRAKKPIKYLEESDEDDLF

Regarding `Cc1ccc2c(=O)[nH]c(-c3ccccc3N(C)C)nc2c1`, the Ratio in [1] was 0.19; in test [6] it was 0.19; in test [7] it was 0.35; in [8], 0.84. The inhibition (usually the percentage by which the read-out fell short of the control) was determined as 82.1% in test [2], 5.3% in [3], 28.1% in test [4] and 41.9% in test [5]. In addition, the concentration for half-maximal inhibition (IC50) (commonly the concentration at which inhibition is half-maximal) in test [9] amounted to 12.8 µM; in [10], 4.43 µM; in test [11], 43.8 µM.
On to `Cc1ccc2nc(-c3cccc(C(F)(F)F)c3)[nH]c(=O)c2c1`, for which the Ratio was 0.64 in [1], 0.13 in [6] and 0.14 in test [7]. Also, the inhibition in test [2] stood at 45.8%; in test [3], 4.2%; in test [4], 11.2%; in test [5], 0%. Moreover, the half-inhibitory concentration (IC50) in [9], in test [10] and in test [11] was over 50 µM throughout.
On to `Cc1cccc(-c2nc3cc(C)ccc3c(=O)[nH]2)c1`, for which the Ratio stood at 1.29 in test [1], 1.83 in test [6], 0.5 in test [7] and 0.5 in test [8]. Also, the inhibition in test [2] is 100%; in test [3], 56.3%; in test [4], 40.4%; in [5] it was 24.9%. In addition, the values for the half-inhibitory concentration (IC50) in [9], in test [10] and in test [11] were 21.1 µM, over 50 µM and 11.2 µM, respectively.
For `COc1cccc(-c2nc3cc(C)ccc3c(=O)[nH]2)c1`, the Ratio in test [1] is 1.29; in [6], 2.6; in [7], 0.54; in [8] it was 0.5. The inhibition in test [2] turned out to be 100%; in [3] it was 80%; in test [4], 43.6%; in test [5], 25.2%. The figures for the IC50 in [9], in test [10] and in [11] were 4.85 µM, over 50 µM and 8.94 µM, respectively.
In the case of `Cc1ccc2nc(-c3ccccc3C(F)(F)F)[nH]c(=O)c2c1`, the Ratio in [1] turned out to be 1.01; in test [6] it was 0.65; in [7] it was 0.09. Moreover, the inhibition in [2] turned out to be 72%; in test [3], 21.1%; in [4] it was 7.2%; in [5], 0%. Also, the IC50 in [9] is over 50 µM; in test [10] it was over 50 µM; in test [11], 2.45 µM.
`COc1cccc(-c2nc3ccc(C)cc3c(=O)[nH]2)c1`: the figures for the Ratio in test [1], in test [7] and in test [8] were 1.01, 0.81 and 0.38, respectively. Moreover, the inhibition in test [2] was determined as 71.8%; in test [3], 0%; in [4] it was 65.2%; in test [5] it was 19%. Also, the values for the 50% inhibitory concentration (IC50) in [9], in [10] and in test [11] were 32 µM, over 50 µM and over 50 µM, respectively.
Take `Cc1cccc(-c2nc3ccc(C)cc3c(=O)[nH]2)c1`: the Ratio in [1] stood at 1.06; in test [6] it was 0.39; in [7], 0.05. For the same compound, the inhibition was 75.7% in test [2], 12.7% in test [3] and 4.6% in test [4]. The IC50 in test [9], in [10] and in test [11] was over 50 µM throughout.
Regarding `Cc1ccc2nc(-c3ccccc3N(C)C)[nH]c(=O)c2c1`, the Ratio came out at 1.03 in test [1], 1.22 in [6] and 0.09 in [7]. Besides, the inhibition stood at 82.9% in test [2], 21.1% in [3] and 7.2% in test [4]. The values for the IC50 in test [9], in test [10] and in test [11] were over 50 µM, 26.7 µM and 14 µM, respectively.
On to `Cc1ccc2c(=O)[nH]c(-c3cccc(F)c3)nc2c1`, for which the Ratio was 0.93 in [1], 0.16 in [6] and 0.12 in [7]. In addition, the inhibition in [2] is 77.5%; in test [3] it was 4.3%; in test [4] it was 9.6%. For the same compound, the values for the IC50 in test [9], in [10] and in test [11] were 14.4 µM, over 50 µM and over 50 µM, respectively.
`O=c1[nH]c(-c2cccc3ccccc23)nc2ccc(N3CCOCC3)cc12`: the Ratio was found to be 1.24 in [1], 0.62 in test [6], 0.58 in [7] and 0.78 in test [8]. For the same compound, the inhibition in test [2] is 100%; in [3], 10.7%; in [4], 46.4%; in test [5], 39.2%; in [12], 83.8%; in [13], 3.2%. Moreover, the IC50 is over 50 µM in test [9], over 50 µM in test [10] and 0.12 µM in [11].
As for `Cc1ccc2c(=O)[nH]c(-c3ccccc3C)nc2c1`, the Ratio worked out at 1.29 in [1], 1.27 in test [6], 0.77 in test [7] and 0.62 in [8]. Moreover, the inhibition turned out to be 100% in [2]; 39.2% in [3]; 61.4% in test [4]; 30.8% in test [5]; 32.4% in test [12]; 0% in test [13]. Also, the figures for the half-inhibitory concentration (IC50) in test [9], in test [10] and in [11] were 11.9 µM, over 50 µM and over 50 µM, respectively.
On to `Cc1c2ccncc2c(C)c2c1[nH]c1ccccc12`, for which, in [12], the inhibition is 88.3%.
